Source: PMC6368337, “GluClR-mediated inhibitory postsynaptic currents reveal targets for ivermectin and potential mechanisms of ivermectin resistance” (PLoS Pathogens, 2019)

Columns and labels:
[1] = tested on: homomeric α (avr-14b) GluClRs; details: cited from earlier work
β GluClRs [2] = biological target: T1, β GluClRs (Haemonchus contortus, UniProt P91730); assay: Two-electrode voltage clamp in oocytes, β GluClRs; type: cell-based, H. contortus; details: EC50, oocytes, −40 mV
Procedure: cDNAs encoding the α (avr-14b) (pcDNA 3.1+) or β (pUNIV) GluClR subunits of H. contortus were nuclear injected into oocytes (NASCO, WI USA) or transfected into HEK293AD cells (CellBank Australia) using a calcium phosphate-DNA co-precipitate method. Synapse formation between neurons and HEK293 cells was promoted by co-transfecting neuroligin 2A or 1B and the cDNA encoding CD4 surface antigen was also added to the transfection mixture so as to identify transfected cells. The oocytes and HEK cells were used for experiments 2–3 days after the introduction of the cDNAs. All experiments were done at room temperature (22 ± 1°C).
Xenopus laevis oocytes were harvested by surgical incision. The oocytes were then defolliculated with 1.5 mg/ml collagenase for 2 hours. Free oocytes were rinsed with calcium-free OR-2 solution containing (in mM) 82.5 NaCl, 2 KCl, 1 MgCl2, 5 HEPES, pH 7.4 and mature stage V or VI oocytes were isolated for experiments. The DNAs coding for α and β subunits were nuclear injected into the oocytes using a Nanoliter 2000 microinjector (WPI Inc) at a ratio of (α:β), 1:0, 0:1, 1:1 and 1:50. […]
Group data were analysed in SigmaPlot 13.0 using one-way ANOVAs, where p < 0.05 was taken as the significance threshold and expressed as mean ± SEM. […] Confocal images were captured and analysed with Zen 2012 SP2 (Zeiss) software. […] Single channel recordings were analysed in QuB software. […]

β GluClRs [3] = biological target: T1, β GluClRs; assay: Single channel recording, outside-out patches, β GluClRs; type: cell-based, H. contortus; details: 2 μM glutamate plus 5 nM IVM
Description: (§1) To explore whether a similar mechanism applies to β-containing GluClRs, we recorded single receptor currents in excised patches from cells transfected with either the α and β subunits (1:1) or the β subunit alone. […] By contrast, patches from cells transfected with the β subunit alone invariably opened to an amplitude of 0.4 pA (Fig 6C). Amplitude histograms confirmed two amplitude levels for αβ GluClRs and a single amplitude for the β GluClRs (Fig 6D). […] We infer that the αβ GluClRs that open to 0.7 pA likely contain a greater proportion of β subunits. This is consistent with β GluClRs having the smallest amplitude and α GluClRs having the greatest amplitude (1.8 pA) under similar recording conditions. The calculated conductance values for the corresponding amplitudes for αβ GluClRs was 15.2 pS and 8.9 pS and for the β GluClRs was 5.1 pS.
(§2) Single-channel currents were recorded from outside-out excised patches at a clamped potential of −70 mV. The single channel conductance was calculated by dividing the mean current by the net driving force at a clamped potential of ‐70 mV, after accounting for reversal and liquid junction potentials. Excised patches were continuously perfused via a gravity-fed double-barrelled glass tube, which contained extracellular bath solution containing (in mM), 140 NaCl, 5 KCl, 1 MgCl2, 2 CaCl2, 10 HEPES, and 10 D-glucose and titrated to pH 7.4. Glutamate and IVM were dissolved in this extracellular solution. Recording electrodes were pulled from borosilicate glass (G150F-3; Warner Instruments), coated with a silicone elastomer (Sylgard-184; Dow Corning) and heat-polished to a final tip resistance of 4–15 MΩ when filled with an intracellular solution containing (in mM) 145 CsCl, 2 MgCl2, 2 CaCl2, 10 HEPES, and 5 EGTA, pH 7.4. […] A 10 mM stock of IVM (Sigma-Aldrich) was dissolved in 100% DMSO and kept frozen at ‐20°C. Fresh working stocks of IVM at 5 nM were prepared by dissolving the appropriate quantity directly in extracellular solution. 100% DMSO when dissolved in extracellular solution alone at the same concentration as was present in working solutions containing 5 nM IVM had no effect on patches excised from cells transfected with GluClRs or from untransfected cells.
(§3) Currents were recorded using an Axopatch 200B amplifier (Molecular Devices), filtered at 5 kHz and digitized at 20 kHz using Clampex (pClamp 10 suite, Molecular Devices) via a Digidata 1440A digitizer.
(§4) Group data were analysed in SigmaPlot 13.0 using one-way ANOVAs, where p < 0.05 was taken as the significance threshold and expressed as mean ± SEM. Tests for normally distributed data are built into the SigmaPlot software. Confocal images were captured and analysed with Zen 2012 SP2 (Zeiss) software. Oocyte concentration-response data were fit to a Hill equation to obtain an EC50 and Hill co-efficient for each oocyte recording. These parameters were then averaged across multiple oocyte experiments of the same type. Single channel recordings were analysed in QuB software. […] Patches yielded between 30–250 individual active periods. […] The selected critical times eliminated periods of receptor desensitisation while retaining singe receptor active periods. Mean active period duration and intra-activation open probability was estimated from each patch. Group means were obtained by averaging across multiple patches for each recording condition.

αβ (1:1) GluClRs = αβ (1:1) GluClRs (Haemonchus contortus, UniProt O46124+P91730); assay: Single channel recording, outside-out patches, αβ (1:1) GluClRs; type: cell-based, H. contortus; details: 2 μM glutamate plus 5 nM IVM
Description: as §1, §2, §3, §4

Chain of αβ (1:1) GluClRs (P91730 19-432): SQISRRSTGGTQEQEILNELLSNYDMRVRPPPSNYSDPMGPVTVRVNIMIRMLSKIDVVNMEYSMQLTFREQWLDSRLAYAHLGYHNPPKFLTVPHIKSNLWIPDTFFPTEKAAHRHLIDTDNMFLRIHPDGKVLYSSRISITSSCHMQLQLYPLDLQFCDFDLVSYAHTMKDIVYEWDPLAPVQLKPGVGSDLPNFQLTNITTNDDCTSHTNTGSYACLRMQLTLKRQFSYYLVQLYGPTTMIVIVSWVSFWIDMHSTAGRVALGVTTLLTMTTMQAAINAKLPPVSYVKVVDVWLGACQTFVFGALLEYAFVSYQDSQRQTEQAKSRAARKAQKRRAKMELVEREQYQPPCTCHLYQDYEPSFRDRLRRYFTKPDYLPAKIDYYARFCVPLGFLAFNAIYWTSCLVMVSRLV
Chain of αβ (1:1) GluClRs (O46124 entry or part of it): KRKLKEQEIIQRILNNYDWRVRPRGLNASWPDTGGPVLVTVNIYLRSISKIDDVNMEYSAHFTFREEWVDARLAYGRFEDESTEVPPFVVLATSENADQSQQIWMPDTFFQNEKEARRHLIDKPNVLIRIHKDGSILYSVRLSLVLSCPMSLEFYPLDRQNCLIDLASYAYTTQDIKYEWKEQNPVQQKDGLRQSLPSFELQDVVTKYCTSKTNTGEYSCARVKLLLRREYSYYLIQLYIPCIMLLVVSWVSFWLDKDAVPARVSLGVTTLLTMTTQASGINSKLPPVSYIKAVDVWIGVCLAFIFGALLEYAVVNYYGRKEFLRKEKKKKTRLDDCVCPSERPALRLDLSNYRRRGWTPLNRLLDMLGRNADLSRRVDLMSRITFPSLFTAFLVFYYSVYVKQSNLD
T1 sequence (P91730 19-432): as the sequence (P91730 19-432) above

Q: Which “time over which single receptor active periods increase in duration after exposure” value [1] does the source give for `CC[C@H](C)[C@H]1O[C@]2(CC[C@@H]1C)C[C@@H]1C[C@@H](C/C=C(\C)[C@@H](O[C@H]3C[C@H](OC)[C@@H](O[C@H]4C[C@H](OC)[C@@H](O)[C@H](C)O4)[C@H](C)O3)[C@@H](C)/C=C/C=C3\CO[C@@H]4[C@H](O)C(C)=C[C@@H](C(=O)O1)[C@]34O)O2` [IVM, Ivermectin] here?
A: 1 to 2 min

Q: And the EC50 (β GluClRs [2])?
A: > 10 µM

Q: And the “intra-activation open probability (PO)” value (β GluClRs [3])?
A: 0.62 ± 0.04

Q: And the “mean active period duration” value (β GluClRs [3])?
A: 120 ± 21 ms

Q: And the “increase in mean active period duration compared to 2 μM glutamate alone” value (αβ (1:1) GluClRs)?
A: over 20 fold

Q: What about the “increase in mean active period duration compared to 3 mM glutamate” value (αβ (1:1) GluClRs) of the same compound?
A: 6 fold

Q: What about the “intra-activation open probability (PO)” value (αβ (1:1) GluClRs) of the same compound?
A: 0.83 ± 0.02

Q: What about the “mean active period duration” value (αβ (1:1) GluClRs; pooled) of the same compound?
A: 876 ± 178 ms
